Measurements as given in paper PMC7719162, “Positioning of an unprecedented spiro[5.5]undeca ring system into kinase inhibitor space” (Scientific Reports, 2020).
Like-named read-outs stand apart in the source and are kept apart here.

Key:
AMPK(A1/B2/G1) [1] = molecular target: T1, AMPK(A1/B2/G1) (Homo sapiens, UniProt O43741+P54619+Q13131); experiment: Kinase panel assay (radiolabelled); format: biochemical; settings: 30 μM compound, ATP 10 μM; duplicates Data 1/Data 2; read-out: % Enzyme Activity (relative to DMSO controls)
T1 construct: purchased Reaction Biology Corp

AMPK(A1/B2/G1) [2] = molecular target: T2, AMPK(A1/B2/G1) (Homo sapiens, UniProt Q13131); experiment: Kinase panel assay (radiolabelled); format: biochemical; settings: 30 μM compound, ATP 10 μM; duplicates Data 1/Data 2
T2 construct: purchased Reaction Biology Corp

AMPK(A1/B1/G2) [3] = molecular target: T3, AMPK(A1/B1/G2) (Homo sapiens, UniProt Q13131); experiment: Kinase panel assay (radiolabelled); format: biochemical; settings: 30 μM compound, ATP 10 μM; duplicates Data 1/Data 2
T3 construct: purchased Reaction Biology Corp

AMPK(A1/B1/G2) [4] = molecular target: T4, AMPK(A1/B1/G2) (Homo sapiens, UniProt Q13131+Q9UGJ0+Q9Y478); experiment: Kinase panel assay (radiolabelled); format: biochemical; settings: 30 μM compound, ATP 10 μM; duplicates Data 1/Data 2; read-out: % Enzyme Activity (relative to DMSO controls)
T4 construct: purchased Reaction Biology Corp

TRKB = molecular target: T5, TRKB (Homo sapiens, UniProt Q16620); experiment: Kinase panel assay (radiolabelled); format: biochemical; settings: ATP 10 μM
T5 construct: purchased Reaction Biology Corp
T5 sequence (Q16620 32-822): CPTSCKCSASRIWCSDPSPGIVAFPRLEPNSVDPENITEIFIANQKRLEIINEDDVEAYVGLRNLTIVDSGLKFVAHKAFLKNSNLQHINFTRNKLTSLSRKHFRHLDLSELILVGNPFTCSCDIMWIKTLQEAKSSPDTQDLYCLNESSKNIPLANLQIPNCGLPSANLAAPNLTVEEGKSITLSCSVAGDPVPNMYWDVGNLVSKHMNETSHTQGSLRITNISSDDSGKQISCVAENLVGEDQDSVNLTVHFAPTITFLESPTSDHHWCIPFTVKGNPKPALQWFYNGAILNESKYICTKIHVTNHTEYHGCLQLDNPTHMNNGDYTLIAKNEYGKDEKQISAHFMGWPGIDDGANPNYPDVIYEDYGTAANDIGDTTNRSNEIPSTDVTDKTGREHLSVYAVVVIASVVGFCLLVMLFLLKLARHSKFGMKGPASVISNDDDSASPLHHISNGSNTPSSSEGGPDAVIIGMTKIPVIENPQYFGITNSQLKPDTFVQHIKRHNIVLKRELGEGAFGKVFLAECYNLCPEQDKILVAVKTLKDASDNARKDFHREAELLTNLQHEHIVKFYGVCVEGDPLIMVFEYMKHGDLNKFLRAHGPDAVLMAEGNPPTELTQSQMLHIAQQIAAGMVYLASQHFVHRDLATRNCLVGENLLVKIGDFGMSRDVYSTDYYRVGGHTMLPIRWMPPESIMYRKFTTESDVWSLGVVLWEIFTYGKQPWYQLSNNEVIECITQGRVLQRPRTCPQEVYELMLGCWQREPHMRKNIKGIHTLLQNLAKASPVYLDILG

DAPK1 = molecular target: T6, DAPK1 (Homo sapiens, UniProt P53355); experiment: Kinase panel assay (radiolabelled); format: biochemical; settings: ATP 10 μM
T6 construct: purchased Reaction Biology Corp
T6 sequence (P53355 whole entry): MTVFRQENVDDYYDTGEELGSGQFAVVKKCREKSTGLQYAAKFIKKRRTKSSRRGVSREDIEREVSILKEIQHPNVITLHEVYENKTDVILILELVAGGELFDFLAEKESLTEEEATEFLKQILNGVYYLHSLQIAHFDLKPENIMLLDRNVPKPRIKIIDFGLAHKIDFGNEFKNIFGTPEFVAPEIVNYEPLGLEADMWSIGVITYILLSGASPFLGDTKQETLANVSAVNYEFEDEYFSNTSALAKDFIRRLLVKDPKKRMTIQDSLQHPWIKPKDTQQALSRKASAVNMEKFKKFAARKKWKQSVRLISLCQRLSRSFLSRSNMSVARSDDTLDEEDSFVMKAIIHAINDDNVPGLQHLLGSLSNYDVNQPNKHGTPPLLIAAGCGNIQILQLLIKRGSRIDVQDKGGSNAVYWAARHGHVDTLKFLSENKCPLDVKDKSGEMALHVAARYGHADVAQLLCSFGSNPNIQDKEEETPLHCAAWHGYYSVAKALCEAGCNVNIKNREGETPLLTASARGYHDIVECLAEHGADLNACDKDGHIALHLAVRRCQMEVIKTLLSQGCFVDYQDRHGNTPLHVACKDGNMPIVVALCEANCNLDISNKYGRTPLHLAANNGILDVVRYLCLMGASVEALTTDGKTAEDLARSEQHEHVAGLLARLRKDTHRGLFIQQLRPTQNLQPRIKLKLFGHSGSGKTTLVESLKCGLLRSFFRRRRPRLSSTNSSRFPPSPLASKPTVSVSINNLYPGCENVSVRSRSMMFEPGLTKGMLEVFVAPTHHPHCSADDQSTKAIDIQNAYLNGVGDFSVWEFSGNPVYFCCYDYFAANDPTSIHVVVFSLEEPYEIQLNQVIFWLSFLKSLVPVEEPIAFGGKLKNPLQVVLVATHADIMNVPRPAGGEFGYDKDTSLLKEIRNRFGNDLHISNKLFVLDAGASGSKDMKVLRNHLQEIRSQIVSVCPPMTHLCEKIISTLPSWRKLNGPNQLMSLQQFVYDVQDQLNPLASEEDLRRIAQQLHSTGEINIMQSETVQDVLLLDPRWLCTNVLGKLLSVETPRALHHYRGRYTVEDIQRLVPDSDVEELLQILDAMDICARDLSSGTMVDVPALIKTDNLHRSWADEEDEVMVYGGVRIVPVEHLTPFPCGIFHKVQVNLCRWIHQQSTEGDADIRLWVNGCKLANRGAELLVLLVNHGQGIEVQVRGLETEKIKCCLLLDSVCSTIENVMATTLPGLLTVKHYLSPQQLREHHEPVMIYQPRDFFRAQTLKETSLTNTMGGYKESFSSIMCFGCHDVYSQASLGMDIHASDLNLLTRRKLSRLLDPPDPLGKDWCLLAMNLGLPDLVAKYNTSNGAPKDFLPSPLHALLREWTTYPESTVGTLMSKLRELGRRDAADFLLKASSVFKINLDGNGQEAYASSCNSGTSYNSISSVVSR

TRKA-TPR = TRKA-TPR (Homo sapiens, UniProt P04629); experiment: biochemical; settings: 30 μM compound, ATP 10 μM, duplicates Data 1/Data 2
CDK2/cyclin O = molecular target: T7, CDK2/cyclin O (Homo sapiens, UniProt P24941); experiment: Kinase panel assay (radiolabelled); format: biochemical; settings: ATP 10 μM
T7 construct: purchased Reaction Biology Corp

PKN2/PRK2 = molecular target: T8, PKN2/PRK2 (Homo sapiens, UniProt Q16513); experiment: Kinase panel assay (radiolabelled); format: biochemical; settings: ATP 10 μM
T8 construct: purchased Reaction Biology Corp
T8 sequence (Q16513 whole entry): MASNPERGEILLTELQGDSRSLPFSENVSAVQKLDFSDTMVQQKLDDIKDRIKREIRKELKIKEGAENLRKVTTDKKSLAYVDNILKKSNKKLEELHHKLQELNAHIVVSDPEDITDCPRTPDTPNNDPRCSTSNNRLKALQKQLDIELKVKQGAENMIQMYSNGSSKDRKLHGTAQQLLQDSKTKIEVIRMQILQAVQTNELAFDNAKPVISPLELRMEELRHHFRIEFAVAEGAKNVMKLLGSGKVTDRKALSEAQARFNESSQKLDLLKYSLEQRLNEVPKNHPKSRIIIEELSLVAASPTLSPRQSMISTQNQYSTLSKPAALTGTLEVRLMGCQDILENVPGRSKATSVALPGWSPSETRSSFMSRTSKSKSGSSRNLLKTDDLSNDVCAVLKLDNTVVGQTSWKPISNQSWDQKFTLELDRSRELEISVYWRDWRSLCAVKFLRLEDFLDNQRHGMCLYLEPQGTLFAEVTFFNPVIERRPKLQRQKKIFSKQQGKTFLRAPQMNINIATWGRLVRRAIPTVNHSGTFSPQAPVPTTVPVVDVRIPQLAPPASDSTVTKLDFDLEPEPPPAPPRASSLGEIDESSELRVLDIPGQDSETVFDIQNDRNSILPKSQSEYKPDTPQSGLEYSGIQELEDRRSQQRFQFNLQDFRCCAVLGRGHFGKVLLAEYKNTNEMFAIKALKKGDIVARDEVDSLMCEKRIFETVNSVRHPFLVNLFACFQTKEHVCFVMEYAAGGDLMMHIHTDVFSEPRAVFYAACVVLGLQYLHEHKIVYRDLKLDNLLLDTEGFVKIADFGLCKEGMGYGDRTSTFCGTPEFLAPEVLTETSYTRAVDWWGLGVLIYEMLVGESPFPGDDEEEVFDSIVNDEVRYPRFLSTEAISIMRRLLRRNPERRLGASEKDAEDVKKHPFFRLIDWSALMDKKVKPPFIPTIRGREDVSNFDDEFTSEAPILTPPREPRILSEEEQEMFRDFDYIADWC

EIF2AK2 = molecular target: T9, EIF2AK2 (Homo sapiens, UniProt P19525); experiment: Kinase panel assay (radiolabelled); format: biochemical; settings: 30 μM compound, ATP 10 μM, duplicates Data 1/Data 2
T9 construct: purchased Reaction Biology Corp

PDK1/PDHK1 = molecular target: T10, PDK1/PDHK1 (Homo sapiens, UniProt Q15118); experiment: Kinase panel assay (radiolabelled); format: biochemical; settings: 30 μM compound, ATP 10 μM, duplicates Data 1/Data 2
T10 construct: purchased Reaction Biology Corp
Method: (§1) Every inhibitory activity of tested compounds was measured by radiolabelled method of Reaction Biology Corp). The radiolabelled ATP ([γ-^33P] ATP) replaced a substrate with ^33P-phosphorylated substrate so that the activity of a kinase was measured from the radiolabelled phosphorylated substrate. Kinase panel assay was tested at 30 μM testing compounds with an ATP concentration of 10 μM and a substrate concentration of 10 μM. % Residual activity against GSK3β was measured at 10 uM compounds 1 and 2. […] Curve fits of control compounds were performed where the enzyme activities at the highest concentration of compounds were less than 65%. The concentration of DMSO was controlled and raw data, % kinase activity was calculated relative to DMSO controls.

PDK2/PDHK2 = molecular target: T11, PDK2/PDHK2 (Homo sapiens, UniProt Q15119); experiment: Kinase panel assay (radiolabelled); format: biochemical; settings: 30 μM compound, ATP 10 μM, duplicates Data 1/Data 2
T11 construct: purchased Reaction Biology Corp
Method: as §1

EIF2AK1 = molecular target: T12, EIF2AK1 (Homo sapiens, UniProt Q9BQI3); experiment: Kinase panel assay (radiolabelled); format: biochemical; settings: 30 μM compound, ATP 10 μM, duplicates Data 1/Data 2
T12 construct: purchased Reaction Biology Corp
Method: as §1

PDK4/PDHK4 = molecular target: T13, PDK4/PDHK4 (Homo sapiens, UniProt Q16654); experiment: Kinase panel assay (radiolabelled); format: biochemical; settings: 30 μM compound, ATP 10 μM, duplicates Data 1/Data 2
T13 construct: purchased Reaction Biology Corp
T13 sequence (Q16654 whole entry): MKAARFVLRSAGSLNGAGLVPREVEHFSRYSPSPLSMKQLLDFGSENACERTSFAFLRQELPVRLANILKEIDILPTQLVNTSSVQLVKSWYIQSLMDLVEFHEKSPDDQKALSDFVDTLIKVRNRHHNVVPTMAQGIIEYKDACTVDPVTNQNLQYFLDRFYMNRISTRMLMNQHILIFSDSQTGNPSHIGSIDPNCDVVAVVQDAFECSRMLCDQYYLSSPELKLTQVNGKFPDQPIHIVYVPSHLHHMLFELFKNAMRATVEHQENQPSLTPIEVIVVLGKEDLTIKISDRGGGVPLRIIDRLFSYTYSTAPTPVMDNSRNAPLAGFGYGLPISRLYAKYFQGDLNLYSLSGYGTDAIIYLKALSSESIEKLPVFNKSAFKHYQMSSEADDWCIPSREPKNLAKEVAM
Method: as §1

PDK3/PDHK3 = molecular target: T14, PDK3/PDHK3 (Homo sapiens, UniProt Q15120); experiment: Kinase panel assay (radiolabelled); format: biochemical; settings: 30 μM compound, ATP 10 μM, duplicates Data 1/Data 2
T14 construct: purchased Reaction Biology Corp
Method: as §1

TRPM7/CHAK1 = molecular target: T15, TRPM7/CHAK1 (Homo sapiens, UniProt Q96QT4); experiment: Kinase panel assay (radiolabelled); format: biochemical; settings: 30 μM compound, ATP 10 μM, duplicates Data 1/Data 2
T15 construct: purchased Reaction Biology Corp
Method: as §1

Haspin [5] = molecular target: T16, Haspin (Homo sapiens, UniProt Q8TF76); experiment: Kinase panel assay (radiolabelled); format: biochemical; settings: ATP 10 μM
T16 construct: purchased Reaction Biology Corp
T16 sequence (Q8TF76 1-798): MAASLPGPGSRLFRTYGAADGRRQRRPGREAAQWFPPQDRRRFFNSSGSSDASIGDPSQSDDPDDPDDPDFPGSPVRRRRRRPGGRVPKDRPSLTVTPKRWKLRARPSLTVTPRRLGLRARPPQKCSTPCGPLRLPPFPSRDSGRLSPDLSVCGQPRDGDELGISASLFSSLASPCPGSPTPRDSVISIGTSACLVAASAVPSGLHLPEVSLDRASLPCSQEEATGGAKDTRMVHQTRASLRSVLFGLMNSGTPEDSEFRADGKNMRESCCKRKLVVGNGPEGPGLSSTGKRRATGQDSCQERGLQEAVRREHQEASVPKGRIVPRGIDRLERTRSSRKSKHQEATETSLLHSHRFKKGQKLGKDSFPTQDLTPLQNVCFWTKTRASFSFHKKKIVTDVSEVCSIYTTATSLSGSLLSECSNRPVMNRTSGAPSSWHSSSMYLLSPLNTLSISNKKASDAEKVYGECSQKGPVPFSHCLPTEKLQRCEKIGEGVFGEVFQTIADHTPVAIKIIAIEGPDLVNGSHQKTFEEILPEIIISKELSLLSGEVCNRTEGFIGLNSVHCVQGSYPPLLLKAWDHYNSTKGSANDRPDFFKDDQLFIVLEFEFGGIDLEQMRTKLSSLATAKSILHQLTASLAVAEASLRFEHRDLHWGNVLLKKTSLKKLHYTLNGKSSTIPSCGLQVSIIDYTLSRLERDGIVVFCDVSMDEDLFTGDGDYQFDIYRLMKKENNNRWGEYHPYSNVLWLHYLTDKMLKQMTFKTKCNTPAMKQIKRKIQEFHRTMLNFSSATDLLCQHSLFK

CDK1/cyclin B [6] = molecular target: T17, CDK1/cyclin B (Homo sapiens, UniProt P06493); experiment: Kinase panel assay (radiolabelled); format: biochemical; settings: ATP 10 μM
T17 construct: purchased Reaction Biology Corp
T17 sequence (P06493 whole entry): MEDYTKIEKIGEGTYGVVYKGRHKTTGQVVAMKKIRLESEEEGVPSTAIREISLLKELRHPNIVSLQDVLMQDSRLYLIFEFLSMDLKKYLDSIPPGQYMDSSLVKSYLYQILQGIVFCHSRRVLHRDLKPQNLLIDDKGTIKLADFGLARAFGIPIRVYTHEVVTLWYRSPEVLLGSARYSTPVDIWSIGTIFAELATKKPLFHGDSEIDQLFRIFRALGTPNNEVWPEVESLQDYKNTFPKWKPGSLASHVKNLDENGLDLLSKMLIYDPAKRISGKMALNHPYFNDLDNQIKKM
T17 sequence (P14635 whole entry partner): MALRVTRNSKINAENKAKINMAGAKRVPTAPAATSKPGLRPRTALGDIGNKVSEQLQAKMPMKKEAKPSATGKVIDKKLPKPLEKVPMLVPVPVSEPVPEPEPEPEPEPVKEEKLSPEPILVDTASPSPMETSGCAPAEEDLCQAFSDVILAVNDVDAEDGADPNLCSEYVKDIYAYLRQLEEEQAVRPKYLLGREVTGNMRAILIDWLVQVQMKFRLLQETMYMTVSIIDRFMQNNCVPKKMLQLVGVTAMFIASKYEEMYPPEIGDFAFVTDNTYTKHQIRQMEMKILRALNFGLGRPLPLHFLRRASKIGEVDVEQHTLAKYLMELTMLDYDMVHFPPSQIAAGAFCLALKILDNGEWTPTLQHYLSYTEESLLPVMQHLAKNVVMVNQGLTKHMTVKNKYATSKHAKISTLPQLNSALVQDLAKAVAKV

MST3/STK24 = molecular target: T18, MST3/STK24 (Homo sapiens, UniProt Q9Y6E0); experiment: Kinase panel assay (radiolabelled); format: biochemical; settings: ATP 10 μM
T18 construct: purchased Reaction Biology Corp
T18 sequence (Q9Y6E0 whole entry): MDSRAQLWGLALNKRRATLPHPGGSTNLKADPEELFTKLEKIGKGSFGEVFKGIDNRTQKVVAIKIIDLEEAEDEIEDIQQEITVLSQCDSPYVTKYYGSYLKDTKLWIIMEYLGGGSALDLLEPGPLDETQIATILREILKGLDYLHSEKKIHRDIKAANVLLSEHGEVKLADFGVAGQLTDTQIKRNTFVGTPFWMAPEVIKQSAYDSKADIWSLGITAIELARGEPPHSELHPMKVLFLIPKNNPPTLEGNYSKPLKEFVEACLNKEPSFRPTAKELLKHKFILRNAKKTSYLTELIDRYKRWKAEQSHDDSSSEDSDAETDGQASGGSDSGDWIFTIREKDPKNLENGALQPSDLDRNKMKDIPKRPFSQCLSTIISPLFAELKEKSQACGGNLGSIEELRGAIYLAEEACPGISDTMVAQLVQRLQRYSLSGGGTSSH

Haspin [7] = molecular target: T16, Haspin; settings: cited from earlier work
TRKC = molecular target: T19, TRKC (Homo sapiens, UniProt Q16288); settings: cited from earlier work
T19 construct: purchased Reaction Biology Corp

ROCK1 = molecular target: T20, ROCK1 (Homo sapiens, UniProt Q13464); settings: cited from earlier work
T20 construct: purchased Reaction Biology Corp

CDK1/cyclin B [8] = molecular target: T17, CDK1/cyclin B; settings: cited from earlier work
[9] = 30 μM compound, duplicates Data 1/Data 2
[10] = 30 μM compound, duplicates Data 1/Data 2, read-out: % Enzyme Activity (relative to DMSO controls)
[11] = 30 μM, average ± SD, read-out: % Residual Activity at 30 μM
[12] = read-out: % Enzyme Activity (relative to DMSO controls)

In the case of `O=C1C=CC2(C=C1)OCC(Cc1cn(-c3cccc(Cl)c3)nn1)C(=O)N2c1ccccc1` (stereo not drawn) [2d, 3-((1-(3-Chlorophenyl)-1H-1,2,3-triazol-4-yl)methyl)-5-phenyl-1-oxa-5-azaspiro[5.5]undeca-7,10-diene-4,9-dione], the remaining activity at 30 µM (AMPK(A1/B2/G1) [1]) is reported as 110%, the “% Enzyme Activity (relative to DMSO controls)” value (AMPK(A1/B2/G1) [2]) is reported as 107.43% and the “% Enzyme Activity (relative to DMSO controls)” value (AMPK(A1/B1/G2) [3]) is reported as 66.48%. For the same compound, the remaining activity at 30 µM (AMPK(A1/B1/G2) [4]) was 68%, the “% Enzyme Activity (relative to DMSO controls)” value (TRKB; [9]) was 101.29% and the remaining activity at 30 µM (TRKB; [10]) was 103%. The remaining activity at 30 µM (TRKB; [11]) was 102 ± 1.3%, the “% Enzyme Activity (relative to DMSO controls)” value (DAPK1; [9]) was 73.41% and the remaining activity at 30 µM (DAPK1; [10]) was 75.8%. The remaining activity at 30 µM (DAPK1; [11]) was 74.6 ± 1.7%, the “% Enzyme Activity (relative to DMSO controls)” value (TRKA-TPR) was 101.99% and the remaining activity at 30 µM (TRKA-TPR; [12]) was 106%. The “% Enzyme Activity (relative to DMSO controls)” value (CDK2/cyclin O; [9]) was 54.15%, the remaining activity at 30 µM (CDK2/cyclin O; [10]) was 54.4% and the remaining activity at 30 µM (CDK2/cyclin O; [11]) was 54.3 ± 0.1%. The “% Enzyme Activity (relative to DMSO controls)” value (PKN2/PRK2; [9]) was 97.21%, the remaining activity at 30 µM (PKN2/PRK2; [10]) was 102% and the remaining activity at 30 µM (PKN2/PRK2; [11]) was 99.5 ± 3.3%. The “% Enzyme Activity (relative to DMSO controls)” value (EIF2AK2) was 100.73%, the remaining activity at 30 µM (EIF2AK2; [12]) was 101% and the “% Enzyme Activity (relative to DMSO controls)” value (PDK1/PDHK1) was 85.01%. For the same compound, the remaining activity at 30 µM (PDK1/PDHK1; [12]) was 85.6%, the “% Enzyme Activity (relative to DMSO controls)” value (PDK2/PDHK2) was 63.30% and the remaining activity at 30 µM (PDK2/PDHK2; [12]) was 64.3%. For the same compound, the “% Enzyme Activity (relative to DMSO controls)” value (EIF2AK1) was 87.95%, the remaining activity at 30 µM (EIF2AK1; [12]) was 91.7% and the “% Enzyme Activity (relative to DMSO controls)” value (PDK4/PDHK4) was 105.05%. The remaining activity at 30 µM (PDK4/PDHK4; [12]) was 111%, the “% Enzyme Activity (relative to DMSO controls)” value (PDK3/PDHK3) was 82.28% and the remaining activity at 30 µM (PDK3/PDHK3; [12]) was 85.9%. The “% Enzyme Activity (relative to DMSO controls)” value (TRPM7/CHAK1) was 63.76%, the remaining activity at 30 µM (TRPM7/CHAK1; [12]) was 67.5% and the “% Enzyme Activity (relative to DMSO controls)” value (Haspin [5]; [9]) was 70.31%. The remaining activity at 30 µM (Haspin [5]; [10]) was 71.6%, the remaining activity at 30 µM (Haspin [5]; [11]) was 70.9 ± 0.9% and the “% Enzyme Activity (relative to DMSO controls)” value (CDK1/cyclin B [6]; [9]) was 58.64%. For the same compound, the remaining activity at 30 µM (CDK1/cyclin B [6]; [10]) was 59.3%, the remaining activity at 30 µM (CDK1/cyclin B [6]; [11]) was 59 ± 0.5% and the “% Enzyme Activity (relative to DMSO controls)” value (MST3/STK24; [9]) was 89.43%. The remaining activity at 30 µM (MST3/STK24; [10]) was 94.2% and the remaining activity at 30 µM (MST3/STK24; [11]) was 91.8 ± 3.4%.

In the case of `O=C1C=CC2(C=C1)OCC(Cc1cc(C(F)(F)F)cc(C(F)(F)F)c1)C(=O)N2c1ccccc1` (racemic) [1c], the “% Residual Activity at 30 μM” value (Haspin [7]) is listed as 66.4 ± 0.5%, the “% Residual Activity at 30 μM” value (TRKC) is listed as 97.9 ± 0.2% and the “% Residual Activity at 30 μM” value (ROCK1) is listed as 97 ± 2.9%. For the same compound, the “% Residual Activity at 30 μM” value (CDK1/cyclin B [8]) was 46.0 ± 0.8%.
